ChEMBL document CHEMBL5728435, “Alpha-D-galactoside inhibitors of galectins” (2021)

Assays:
Galectin-3 = Galectin-3 (Homo sapiens, UniProt P17931); assay: (§1) Fluorescence Anisotropy Assay: Compounds for galectins were determined by a fluorescence anisotropy assay where the compound was used as an inhibitor of the interaction between galectin and a fluorescein tagged saccharide probe.
Galectin-1 = Galectin-1 (Homo sapiens, UniProt P09382); assay: as §1
Galectin-1, sequence (P09382 whole entry): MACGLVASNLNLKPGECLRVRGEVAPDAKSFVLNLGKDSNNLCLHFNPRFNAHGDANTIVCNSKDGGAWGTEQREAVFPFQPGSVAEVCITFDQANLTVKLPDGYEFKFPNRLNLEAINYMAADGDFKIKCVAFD

Galectin-3, sequence (P17931 whole entry): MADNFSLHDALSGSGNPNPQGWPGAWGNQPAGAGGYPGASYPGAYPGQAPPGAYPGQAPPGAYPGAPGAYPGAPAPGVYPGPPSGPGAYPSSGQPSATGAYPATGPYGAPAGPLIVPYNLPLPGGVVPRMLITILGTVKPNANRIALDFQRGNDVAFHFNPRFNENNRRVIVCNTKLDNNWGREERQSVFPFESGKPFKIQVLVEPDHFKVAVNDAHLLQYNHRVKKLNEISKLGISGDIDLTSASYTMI

OCC1O[C@H](Sc2cc(Cl)c(F)c(Cl)c2)C(O)[C@@H](n2cc(-c3nccs3)nn2)[C@H]1O (some centres not stated)
Kd (Galectin-3): 10 µM
Kd (Galectin-1): 0.28 µM
